Measurements as given in patent publication US11596632B2, “JAK1 pathway inhibitors for the treatment of gastrointestinal disease” (Incyte Corporation, priority 2018, dated 2023).
“Also recorded” adds a separate entry of the source. Like-named read-outs stand apart in the source and are kept apart here.

How the values were obtained:
JAK2 (a.a. 828-1132) = JAK2 (a.a. 828-1132) (Homo sapiens (Human), UniProt O60674); assay: In vitro JAK kinase assay (HTRF), JAK2 relative to JAK1; format: biochemical; conditions: IC50 ratio, 1 mM ATP
Experimental: The catalytic activity of JAK1, JAK2 or JAK3 was assayed by measuring the phosphorylation of a biotinylated peptide. The phosphorylated peptide was detected by homogenous time resolved fluorescence (HTRF). […] Reactions are carried out at room temperature for 1 hour and then stopped with 20 μL 45 mM EDTA, 300 nM SA-APC, 6 nM Eu-Py20 in assay buffer (Perkin Elmer, Boston, Mass.). Binding to the Europium labeled antibody takes place for 40 minutes and HTRF signal was measured on a Fusion plate reader (Perkin Elmer, Boston, Mass.).

[1] = tested on: IL-6 stimulated phosphorylated STAT3 in whole blood; assay: IL-6 stimulated STAT3 phosphorylation in whole blood; format: cell-based; conditions: Homo sapiens, IL-6 stimulated pSTAT3, read-out: ex vivo whole blood IC50
Experimental: To assess the inhibitory activity of Compound 1 in serum-rich media, e.g., plasma or whole blood, the assay is conducted using whole blood; briefly, the whole blood sample is stimulated with IL-6 and levels of phosphorylated STAT3 are determined. This assay can be conducted either in vitro (human blood samples are spiked with Compound 1) or ex vivo (whole blood samples collected from human subjects dosed with Compound 1).

[2] = Plasma pharmacokinetics after single oral sustained release dose; format: in vivo, human
Experimental: The method used for analyzing Compound 1 in human plasma has been validated. Briefly, 50 μL of human plasma sample is placed in a 96-well plate. After an aliquot of 50 μL of internal standard (dissolved in 50:50 acetonitrile:water) is added, an aliquot of 100 μL of 0.1 M NaHCO3 is added. Then 800 μL of methyl-t-butyl ether (MtBE) is added and the samples are covered and vortexed. After centrifugation, 700 μL of MtBE layer is transferred to a clean 96-well plate. The samples are then dried under nitrogen at approximately 50° C. An aliquot of 250 μL of reconstitution solution (acetonitrile:water, 50:50, v/v) is then added to each sample. The plate is placed in the autosampler tray and injected into an LC-MS/MS for analysis. The LC-MS/MS analysis is carried out with an AB Sciex 4000 or a Sciex 6500 QTRAP mass spectrometer coupled with an HPLC pump and an autosampler. The chromatographic separation is achieved on a Waters T3 (50 mm×2.1 mm) HPLC column, with isocratic elution. The mass spectrometer is operated in positive ESI mode. The multiple reaction monitoring (MRM) transition is m/z 554.1→186.0 for Compound 1 and m/z 558.1→190.0 for the internal standard. Peak-area integrations are performed using the Analyst software and concentrations are calculated in Watson LIMS. Concentrations are calculated using 10 concentration levels ranging from 5 nM to 5000 nM with weighted linear regression, according to the following formula: y=ax+b(weighting factor=1/x^2) • where: x=Compound 1 concentration in nM; y=Peak-area ratio; a=Slope; and b=Intercept.
The lower limit of quantitation is 5 nM and the calibration curve ranges from 5 nM to 5000 nM for Compound 1 in human plasma.
Methods: Compound 1 concentrations in plasma and feces (colonic surrogate) were determined following a single sustained release 25 mg oral dose (see, e.g., Example B, 25 mg SR composition). Compound 1 concentrations in plasma following a single 100 mg dose were also determined in a separate study (see, e.g., Example C for measuring concentrations of Compound 1 in plasma). Ex vivo study: Colon tissue samples from healthy and UC subjects (2/group) were mounted on a vertical Ussing diffusion chamber. [^14C]Compound 1 was applied to the apical side of the chamber at 100 and 1000 nM and incubated for 1 h. Samples were collected from the donor and receiver sides for determination of Compound 1 concentration. The colonic tissue was snap frozen for quantitative autoradiography.
Standard noncompartmental pharmacokinetic methods were used to analyze Compound 1 plasma concentrations. The Cmax (maximum plasma concentration) and Tmax (time at which the maximum plasma concentration occurs) were taken directly from the observed plasma concentration data. The terminal-phase disposition rate constant (λZ) was estimated using a log-linear regression of the concentration data in the terminal disposition phase, and t1/2 was estimated as ln(2)/λZ. AUCall is defined as the area under the plasma concentration-time curve from time 0 to the last observation calculated using the linear trapezoidal rule for increasing concentrations and logarithmic trapezoidal rule for decreasing concentrations. AUC0-inf was calculated as AUC0-t+Ct/λZ, where by AUC0-t is defined as the area under the plasma concentration-time curve from time 0 to the last measureable concentration (also calculated using the linear-up/log-down trapezoidal rule) and Ct is the last measurable concentration. Cl/F is the apparent clearance and is calculated as Dose/AUC0-inf. Vz/F is the apparent volume of distribution based on the terminal phase calculated as Dose/(λZ*AUC0-inf).

[3] = tested on: TPO-induced STAT3 phosphorylation; assay: Ex vivo TPO-induced STAT3 phosphorylation in dosed patients (marker of JAK2 inhibition); design: species or system human
Experimental: The systemic effects of Compound 1 have been studied in the auto-immune diseases RA and Ps. Inhibition of phosphorylation of STAT3 following stimulation with IL-6, a marker of AK1 inhibition, and TPO, a marker of JAK2 inhibition was measured in both studies. In patients with Ps doses of 100 mg QD, 200 mg QD, 200 mg BID, and 600 mg QD were studied.

[4] = tested on: oxazolone-induced colitis in BALB/c mice; assay: Mouse oxazolone-induced colitis model; format: in vivo
[5] = single 25 mg SR oral dose, N=12

Sequence of JAK2 (a.a. 828-1132) (O60674 828-1132): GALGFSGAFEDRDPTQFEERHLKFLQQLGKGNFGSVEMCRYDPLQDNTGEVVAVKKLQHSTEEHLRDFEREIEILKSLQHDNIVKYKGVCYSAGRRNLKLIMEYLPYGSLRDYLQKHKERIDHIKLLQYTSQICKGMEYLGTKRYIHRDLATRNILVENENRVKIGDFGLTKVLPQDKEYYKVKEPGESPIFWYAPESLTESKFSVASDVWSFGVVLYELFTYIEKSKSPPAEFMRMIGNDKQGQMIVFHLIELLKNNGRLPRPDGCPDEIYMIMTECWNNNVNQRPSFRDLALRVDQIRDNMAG

Compound `N#CCC1(n2cc(-c3ncnc4[nH]ccc34)cn2)CN(C2CCN(C(=O)c3ccnc(C(F)(F)F)c3F)CC2)C1` [Compound 1, {1-{1-[3-Fluoro-2-(trifluoromethyl)isonicotinoyl]piperidin-4-yl}-3-[4-(7H-pyrrolo[2,3-d]pyrimidin-4-yl)-1H-pyrazol-1-yl]azetidin-3-yl}acetonitrile] has a JAK2/JAK1 (JAK2 (a.a. 828-1132)) of over 10, an IC50 [1] of 141 nM and a Cmax ([2]; human, plasma, 100 mg, plasma, single 100 mg dose, separate study, read-out: Cmax, mean (SD)) of 84.4 nM. It also gave an AUC(0-inf) ([2]; human, plasma, po, 25 mg, plasma, single 25 mg SR oral dose, N=12, read-out: AUC0-inf, Geometric Mean) of 0.111 µM·h, an AUC(0-inf) ([2]; human, plasma, po, 25 mg, plasma, single 25 mg SR oral dose, N=12, read-out: AUC0-inf, Mean) of 0.117 µM·h and an AUC ([2]; human, plasma, po, 25 mg, plasma, single 25 mg SR oral dose, N=12, read-out: AUCall, Geometric Mean) of 0.105 µM·h. It also gave an AUC ([2]; human, plasma, po, 25 mg, plasma, single 25 mg SR oral dose, N=12, read-out: AUCall, Mean) of 0.11 µM·h, a Cmax ([2]; human, plasma, po, 25 mg, plasma, single 25 mg SR oral dose, N=12, read-out: Cmax, Geometric Mean) of 17.2 nM and a Cmax ([2]; human, plasma, po, 25 mg, plasma, single 25 mg SR oral dose, N=12, read-out: Cmax, Mean) of 18.9 nM. It also gave a half-life ([2]; human, plasma, po, 25 mg, single 25 mg SR oral dose, N=12, read-out: Half-life or t1/2, Geometric Mean (converted)) of 9.04 h, a half-life ([2]; human, plasma, po, 25 mg, single 25 mg SR oral dose, N=12, read-out: Half-life or t1/2, Mean (converted)) of 12.3 h and a Vd/F ([2]; human, plasma, po, 25 mg, single 25 mg SR oral dose, N=12, read-out: Vz/F, Geometric Mean) of 5290 L. For the same compound, the Vd/F ([2]; human, plasma, po, 25 mg, single 25 mg SR oral dose, N=12, read-out: Vz/F, Mean) was 7360 L, the Tmax ([2]; human, plasma, single 25 mg SR oral dose, N=12 (min 1, max 4), read-out: Tmax, median) was 2 h and the “dose proportionality of PK” value ([2]; humans) was “supralinear PK with regard to dose”. The “oral bioavailability in humans” value ([2]; in vivo, po) was “moderate”, the “Cl/F, Geometric Mean” value [2, 5] was 405 L/h and the “Cl/F, Mean” value [2, 5] was 424 L/h. The “TPO induced pSTAT3 inhibition” value ([3]; RA patients, 100 mg QD to 600 mg QD, Cycle 1 Day 15) was “general trend of increasing TPO induced pSTAT3 inhibition”, the “inhibition of pSTAT3 in response to TPO” value ([3]; psoriasis patients, 100 mg QD, 200 mg QD, and 200 mg BID) was “no significant inhibition of pSTAT3” and the colon shortening ([4]; 3 mg/kg IC BID) was “significantly ameliorated colon shortening; also recorded: significantly (p<0.05) reduced colon shortening”. The macroscopic tissue pathology ([4]; 30 mg/kg BID oral) was “ameliorating macroscopic tissue pathology”, the “normalized colon weight (inflammatory swelling)” value ([4]; 30 mg/kg BID oral) was “reducing normalized colon weight” and the “recovery from diarrhea and rectal bleeding (symptoms)” value ([4]; 30 mg/kg BID oral) was “reduces symptoms; also recorded: efficacious in accelerating recovery from diarrhea and rectal bleeding”. For the same compound, the colon shortening ([4]; 30 mg/kg PO BID) was “significantly ameliorated colon shortening; also recorded: significant (p<0.05) reduction in colon shortening” and the “stool consistency and fecal occult blood scoring” value ([4]; twice daily, orally or intracolonically, vs vehicle) was “significantly ameliorated stool consistency and reduced fecal occult blood scoring”.
